According to patent US20260159481A1, “INDOLE DERIVATIVE WITH SUBSTITUENT AND PHARMACEUTICAL USE” (MITOIMMUNE THERAPEUTICS INC., priority 2023, published 2026):

Tests used:
[1] = tested on: cardiac cells (H9C2); test: Protective effect against t-BHP-induced cell death in cardiac cells (LDH release); type: cell-based; conditions: Rattus norvegicus, t-BHP 400 PM, 2 hours, read-out: EC50, protective effect against cell death due to t-BHP induction
How it was run: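 H9C2 cells were pretreated 15–20 min with compound at final 0.001–30 PM (so in the source), then exposed to t-BHP at final 400 PM for 2 h. LDH released into supernatant was measured colorimetrically at 490 nm after 15 min room-temperature reaction, and EC50 derived.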

[2] = tested on: cardiac cells (H9C2); test: Protective effect against cell death due to RSL3 (LDH release), H9C2; type: cell-based; conditions: Rattus norvegicus, RSL3 0.5 μM, 24 hours
Experimental: (§1) To confirm cell death protection effects on cardiac cells, adrenal medullary cells, renal fibroblasts, retinal epithelial cells, lung epithelial cells, renal proximal tubular epithelial cells, hippocampal neurons and fibroblasts, each type of cells were seeded at 4×10^3 to 1.2×10^4 cells/well in a 96-well plate and cultured for 18 to 24 hours. The example compounds were diluted to have the final concentration of 0.001, 0.003, 0.01, 0.3, 1, 3, and 10 μM, respectively, and then added to different wells and cultured for 15 to 20 minutes. […] To confirm the cell death protection effect of the example compounds, the degree of extracellular secretion of lactate dehydrogenase (LDH) was measured using a cytotoxicity LDH assay kit [Dojindo; CK12]. Briefly, at the end of 24-hour treatment of each type of cells with RSL3, 70 μL of the supernatant was taken from the 96-well plate where the cells were cultured and transferred to a new 96-well plate. The assay buffer included in the kit was added at 70 μL/well (equal to that of the sample) and the plate was covered with foil to block light and allowed to react for 15 to 20 minutes at room temperature. While observing a color change of the sample, 35 µL/well of a stop solution was added, an absorbance at 490 nm was measured using an iD3 spectrophotometer, and an EC50 value was calculated.

[3] = tested on: renal fibroblasts (NRK-49F); test: Protective effect against cell death due to RSL3 (LDH release), NRK-49F; type: cell-based; conditions: Rattus norvegicus, RSL3 3 μM, 24 hours
Experimental: as §1

[4] = tested on: lung epithelial cells (MLE-12); test: Protective effect against cell death due to RSL3 (LDH release), MLE-12; type: cell-based; conditions: MLE12, RSL3 1 μM, 24 hours
Experimental: as §1

[5] = tested on: retinal epithelial cells (ARPE-19); test: Protective effect against cell death due to RSL3 (LDH release), ARPE-19; type: cell-based; conditions: Homo sapiens, RSL3 0.3 μM, 24 hours
Experimental: as §1

[6] = tested on: adrenal medullary cells (PC-12); test: Protective effect against cell death due to RSL3 (LDH release), PC-12; type: cell-based; conditions: Rattus norvegicus, RSL3 0.3 μM, 24 hours
Experimental: as §1

[7] = tested on: renal proximal tubular epithelial cells (HK2); test: Protective effect against cell death due to RSL3 (LDH release), HK2; type: cell-based; conditions: Epithelial cell, RSL3 0.3 μM, 24 hours
Experimental: as §1

[8] = tested on: hippocampal neurons (HT-22); test: Protective effect against cell death due to RSL3 (LDH release), HT-22; type: cell-based; conditions: Mus musculus, RSL3 0.3 μM, 24 hours
Experimental: as §1

[9] = tested on: fibroblasts (NIH/3T3); test: Protective effect against cell death due to RSL3 (LDH release), NIH/3T3; type: cell-based; conditions: Mus musculus, NIH3T3, RSL3 3 μM, 24 hours
Experimental: as §1

[10] = Pharmacokinetics in plasma after oral administration to ICR mice; type: in vivo; conditions: oral 10 mg/kg
Experimental: Pharmacokinetic parameters may include the maximum plasma concentration (Cmax), the time to reach the maximum plasma concentration (Tmax), the area under the plasma concentration-time curve (AUCinf), and a half-life (t1/2).
Example Compound 27 was orally administered to ICR mice at a dose of 10 mg/kg. Drug concentrations in the plasma of mice were measured by HPLC-MS/MS spectroscopy 0.5, 1, 2, 4, 8, or 24 hours after administration.
The comparative example compound was orally administered to ICR mice at a dose of 10 mg/kg. The drug concentrations in the plasma of the mice were measured by HPLC-MS/MS 0.5, 1, 2, 4, 8, or 24 hours after administration.

## OCCOCc1cc(NC2CCOCC2)c2[nH]c(-c3ccccc3)cc2c1 [Example 27, 2-((2-phenyl-7-((tetrahydro-2H-pyran-4-yl)amino)-1H-indol-5-yl)methoxy)ethan-1-ol]
[1]
  EC50: ≤ 300 nM
[2]
  EC50: ≤ 100 nM
[3]
  EC50: ≤ 100 nM
[4]
  EC50: 100 to 1000 nM
[5]
  EC50: ≤ 100 nM
[6]
  EC50: ≤ 100 nM
[7]
  EC50: ≤ 100 nM
[8]
  EC50: ≤ 100 nM
[9]
  EC50: ≤ 100 nM
[10]; mouse, plasma
  Cmax: 4440 ng/mL
  Tmax: 1 h
  half-life: 2.83 h
[10]; mouse, plasma, read-out: area under the plasma concentration-time curve (AUCinf)
  AUC(0-inf): 25100 ng·h/mL
[10]; mouse, plasma, 0.5 hr
  concentration at 0.5 h: 3830 ng/mL
[10]; mouse, plasma, 1 hr
  concentration at 1 h: 4440 ng/mL
[10]; mouse, plasma, 2 hr
  concentration at 2 h: 3780 ng/mL
[10]; mouse, plasma, 4 hr
  concentration at 4 h: 2800 ng/mL
[10]; mouse, plasma, 8 hr
  concentration at 8 h: 1080 ng/mL
[10]; mouse, plasma, 24 hr
  concentration at 24 h: 1 ng/mL
[10]
  exposure (AUCinf) relative to the comparative example compound: approximately 5 times
  half-life relative to the comparative example compound: approximately 2 times
  maximum plasma concentration (Cmax) relative to the comparative example compound: approximately 2 times
[10]; plasma
  AUCinf: 25,115 ng · hr/mL
